From PMC9146984, “A Novel Proline-Rich Cathelicidin from the Alpaca Vicugna pacos with Potency to Combat Antibiotic-Resistant Bacteria: Mechanism of Action and the Functional Role of the C-Terminal Region” (Membranes, 2022)
Values after ≈ are worked out from the molar mass of the structure shown. Where a SMILES comes first, the peptide text is derived from it.

Columns and labels:
human cells = test: Cytokine response (multiplex xMAP immunoassay), cell type not given; format: cell-based; settings: 2 µM peptide, 24 h, control 1813 pg/mL
Method: Acute monocytic leukemia THP-1 line (ATCC TIB-202) was cultured in complete RPMI 1640 medium (Invitrogen, Waltham, MA, USA) containing 10% FBS, 1× antibiotic-antimycotic solution (Invitrogen, Waltham, MA, USA), and 0.05 mM β-mercaptoethanol, in the CO2-incubator (5% CO2, 37 °C). THP-1 cells were differentiated into proinflammatory macrophages (MΦ1) according to the previously reported protocol. Primary peripheral blood mononuclear cells (PBMC) collected from a healthy donor were purchased from American Type Culture Collection (ATCC PCS-800-011), thawed, and seeded into a 96-well plate one day prior to the experiment at a density of 2 × 10^5 cells/well. […] 27 analytes were measured at a protein level by multiplex xMAP technology using the MILLIPLEX MAP Human Cytokine/Chemokine Magnetic Bead Immunology Panel kit (HCYTOMAG-60K-27, Merck, Darmstadt, Germany): eotaxin-1/CCL11, TGFα, GM-CSF, IFNα2, IFNγ, IL-10, IL-12p40, IL-12p70, IL-13, IL-15, sCD40L, IL-17A, IL-1RA, IL-1α, IL-9, IL-1β, IL-2, IL-3, IL-4, IL-5, IL-6, IL-7, IL-8/CXCL8, IP-10/CXCL10, RANTES/CCL5, TNFα, TNFβ. Multiplex-based assay read-out was performed using the MAGPIX system (Merck) with the xPONENT 4.2 software (Merck, Darmstadt, Germany) in accordance with the manufacturer’s instruction with overnight incubation of the samples with primary antibodies. […]

S. aureus ATCC 29213 = test: Antimicrobial assay (MIC); format: cell-based, Staphylococcus aureus; settings: Mueller-Hinton broth supplemented with 0.9% NaCl
Method: (§1) The reduction of resazurin to resorufin was measured.

S. aureus ATCC 6538P = test: Antimicrobial assay (MIC); format: cell-based, Staphylococcus aureus; settings: Mueller-Hinton broth supplemented with 0.9% NaCl
Method: as §1

S. aureus ATCC 25923 = test: Antimicrobial assay (MIC); format: cell-based, Staphylococcus aureus; settings: Mueller–Hinton broth supplemented with 0.9% NaCl
Method: as §1

CC[C@H](C)[C@H](NC(=O)[C@H](CCCNC(=N)N)NC(=O)[C@@H](N)CCCNC(=N)N)C(=O)N[C@@H](CCCNC(=N)N)C(=O)N[C@@H](CCCNC(=N)N)C(=O)N1CCC[C@H]1C(=O)N[C@@H](CCCNC(=N)N)C(=O)N[C@@H](CC(C)C)C(=O)N1CCC[C@H]1C(=O)N[C@@H](CCCNC(=N)N)C(=O)N1CCC[C@H]1C(=O)N[C@@H](CCCNC(=N)N)C(=O)N[C@H](C(=O)N1CCC[C@H]1C(=O)N[C@@H](CCCNC(=N)N)C(=O)N1CCC[C@H]1C(=O)N[C@@H](CCCNC(=N)N)C(=O)N[C@H](C(=O)N1CCC[C@H]1C(=O)N1CCC[C@H]1C(=O)N[C@@H](CCCNC(=N)N)C(=O)N[C@H](C(=O)N1CCC[C@H]1C(=O)N[C@@H](CCCNC(=N)N)C(=O)N1CCC[C@H]1C(=O)N[C@H](C(=O)N[C@@H](CC(C)C)C(=O)N1CCC[C@H]1C(=O)N1CCC[C@H]1C(=O)N1CCC[C@H]1C(=O)N[C@@H](CCCNC(=N)N)C(=O)N[C@H](C(=O)N1CCC[C@H]1C(=O)N[C@@H](Cc1ccccc1)C(=O)N1CCC[C@H]1C(=O)N[C@@H](CCCNC(=N)N)C(=O)N[C@@H](Cc1ccccc1)C(=O)N1CCC[C@H]1C(=O)N[C@@H](CCCNC(=N)N)C(N)=O)C(C)C)C(C)C)[C@@H](C)CC)[C@@H](C)CC)C(C)C [VicBac[1-39]] (H-RRIRRPRLPRPRVPRPRIPPRIPRPVLPPPRVPFPRFPR-NH2; N-terminus assumed)
Production of IL-8/CXCL8 (human cells): 1034 pg/mL
MIC, S. aureus ATCC 29213 (S. aureus ATCC 29213): > 32 µM
MIC, S. aureus ATCC 6538P (S. aureus ATCC 6538P): 0.25 µM (≈ 1.2 µg/mL)
inhibition of S. aureus ATCC 25923 (S. aureus ATCC 25923): could not inhibit
